Experimental data taken from patent US11718604B2, “4-amino-6-(1,3-benzodioxole)picolinates and their use as herbicides” (Dow AgroSciences LLC, priority 2018, dated 2023).

Key:
Assay type in all cases: in vivo
[1] = test system: VIOTR: wild violet (Viola tricolor); assay: Post-emergent herbicidal test, wild violet; conditions: post-emergence, 336 h, 14 days after application, read-out: Visual Growth Reduction (%) 14 Days After Application VIOTR
Method: (§1) Post-Emergent Test: Seeds or nutlets of the desired test plant species were planted in Sun Gro Metro-Mix® 360 planting mixture, which typically has a pH of 6.0 to 6.8 and an organic matter content of about 30 percent, in plastic pots with a surface area of 64 square centimeters (cm^2). When required to ensure good germination and healthy plants, a fungicide treatment and/or other chemical or physical treatment was applied. The plants were grown for 7-21 d in a greenhouse with an approximate 15 h photoperiod which was maintained at about 23-29° C. during the day and 22-28° C. during the night. Nutrients and water were added on a regular basis and supplemental lighting was provided with overhead metal halide 1000-Watt lamps as necessary. The plants were employed for testing when they reached the first or second true leaf stage.
(§2) A weighed amount, determined by the highest rate to be tested, of each test compound was placed in a 25 mL glass vial and was dissolved in 4 mL of a 97:3 v/v mixture of acetone and DMSO to obtain concentrated stock solutions. […] The concentrated stock solutions obtained were diluted with 20 mL of an aqueous mixture containing acetone, water, isopropyl alcohol, DMSO, Atplus 411F crop oil concentrate, and Triton® X-155 surfactant in a 48.5:39:10:1.5:1.0:0.02 v/v ratio to obtain spray solutions containing the highest application rates. Additional application rates were obtained by serial dilution of 12 mL of the high rate solution into a solution containing 2 mL of a 97:3 v/v mixture of acetone and DMSO and 10 mL of an aqueous mixture containing acetone, water, isopropyl alcohol, DMSO, Atplus 411F crop oil concentrate, and Triton X-155 surfactant in a 48.5:39:10:1.5:1.0:0.02 v/v ratio to obtain ½×, ¼×, ⅛× and 1/16× rates of the high rate. Compound requirements are based upon a 12 mL application volume at a rate of 187 liters per hectare (L/ha). Formulated compounds were applied to the plant material with an overhead Mandel track sprayer equipped with 8002E nozzles calibrated to deliver 187 L/ha over an application area of 0.503 square meters at a spray height of 18 inches (43 cm) above the average plant canopy height. Control plants were sprayed in the same manner with the solvent blank.
(§3) The treated plants and control plants were placed in a greenhouse as described above and watered by subirrigation to prevent wash-off of the test compounds. After 14 d, the condition of the test plants as compared with that of the untreated plants was determined visually and scored on a scale of 0 to 100 percent where 0 corresponds to no injury and 100 corresponds to complete kill.

[2] = test system: BRSNN: oilseed rape, canola (Brassica napus); assay: Post-emergent herbicidal test, oilseed rape; conditions: post-emergence, 336 h, 14 days after application, read-out: Visual Growth Reduction (%) 14 Days After Application BRSNN
Method: as §1, §2, §3

[3] = test system: DIGSA: large crabgrass (Digitaria sanguinalis); assay: Post-emergent herbicidal test, large crabgrass; conditions: post-emergence, 336 h, 14 days after application, read-out: Visual Growth Reduction (%) 14 Days After Application DIGSA
Method: as §1, §2, §3

[4] = test system: SETFA: giant foxtail (Setaria faberi); assay: Post-emergent herbicidal test, giant foxtail; conditions: post-emergence, 336 h, 14 days after application, read-out: Visual Growth Reduction (%) 14 Days After Application SETFA
Method: as §1, §2, §3

[5] = test system: ABUTH: velvetleaf (Abutilon theophrasti); assay: Post-emergent herbicidal test, velvetleaf; conditions: post-emergence, 336 h, 14 days after application, read-out: Visual Growth Reduction (%) 14 Days After Application ABUTH
Method: as §1, §2, §3

[6] = test system: SORVU: shattercane (Sorghum bicolor); assay: Post-emergent herbicidal test, shattercane; conditions: post-emergence, 336 h, 14 days after application, read-out: Visual Growth Reduction (%) 14 Days After Application SORVU
Method: as §1, §2, §3

[7] = test system: EPHHL: wild poinsettia (Euphorbia heterophylla); assay: Post-emergent herbicidal test, wild poinsettia; conditions: post-emergence, 336 h, 14 days after application, read-out: Visual Growth Reduction (%) 14 Days After Application EPHHL
Method: as §1, §2, §3

[8] = test system: CIRAR: Canada thistle (Cirsium arvense); assay: Post-emergent herbicidal test, Canada thistle; conditions: post-emergence, 336 h, 14 days after application, read-out: Visual Growth Reduction (%) 14 Days After Application CIRAR
Method: as §1, §2, §3

[9] = test system: CYPES: yellow nutsedge (Cyperus esculentus); assay: Post-emergent herbicidal test, yellow nutsedge; conditions: post-emergence, 336 h, 14 days after application, read-out: Visual Growth Reduction (%) 14 Days After Application CYPES
Method: as §1, §2, §3

[10] = test system: ECHCG: barnyardgrass (Echinochloa crus-galli); assay: Post-emergent herbicidal test, barnyardgrass; conditions: post-emergence, 336 h, 14 days after application, read-out: Visual Growth Reduction (%) 14 Days After Application ECHCG
Method: as §1, §2, §3

[11] = test system: IPOHE: ivyleaf morningglory (Ipomoea hederacea); assay: Post-emergent herbicidal test, ivyleaf morningglory; conditions: post-emergence, 336 h, 14 days after application, read-out: Visual Growth Reduction (%) 14 Days After Application IPOHE
Method: as §1, §2, §3

For C#CCOC(=O)c1nc(-c2ccc(Cl)c3c2OCO3)c(F)c(N)c1Cl [Compound 1C], the pest or weed control at 17.5 g/ha ([1]; 17.5 g ai/ha) was 65%, the pest or weed control at 35 g/ha ([1]; 35 g ai/ha) was 65% and the pest or weed control at 70 g/ha ([1]; 70 g ai/ha) was 60%. For the same molecule, the pest or weed control at 140 g/ha ([1]; 140 g ai/ha) was 65%, the pest or weed control at 17.5 g/ha ([2]; 17.5 g ai/ha) was 95% and the pest or weed control at 35 g/ha ([2]; 35 g ai/ha) was 97%. It also gave a pest or weed control at 70 g/ha ([2]; 70 g ai/ha) of 100%, a pest or weed control at 140 g/ha ([2]; 140 g ai/ha) of 100% and a pest or weed control at 17.5 g/ha ([3]; 17.5 g ai/ha) of 0%. For the same molecule, the pest or weed control at 35 g/ha ([3]; 35 g ai/ha) was 0%, the pest or weed control at 70 g/ha ([3]; 70 g ai/ha) was 0% and the pest or weed control at 140 g/ha ([3]; 140 g ai/ha) was 60%. For the same molecule, the pest or weed control at 17.5 g/ha ([4]; 17.5 g ai/ha) was 0%, the pest or weed control at 35 g/ha ([4]; 35 g ai/ha) was 0% and the pest or weed control at 70 g/ha ([4]; 70 g ai/ha) was 50%. For the same molecule, the pest or weed control at 140 g/ha ([4]; 140 g ai/ha) was 60%, the pest or weed control at 17.5 g/ha ([5]; 17.5 g ai/ha) was 100% and the pest or weed control at 35 g/ha ([5]; 35 g ai/ha) was 100%. The pest or weed control at 70 g/ha ([5]; 70 g ai/ha) was 100%, the pest or weed control at 140 g/ha ([5]; 140 g ai/ha) was 100% and the pest or weed control at 17.5 g/ha ([6]; 17.5 g ai/ha) was 10%. For the same molecule, the pest or weed control at 35 g/ha ([6]; 35 g ai/ha) was 50%, the pest or weed control at 70 g/ha ([6]; 70 g ai/ha) was 70% and the pest or weed control at 140 g/ha ([6]; 140 g ai/ha) was 70%. The pest or weed control at 17.5 g/ha ([7]; 17.5 g ai/ha) was 10%, the pest or weed control at 35 g/ha ([7]; 35 g ai/ha) was 10% and the pest or weed control at 70 g/ha ([7]; 70 g ai/ha) was 10%. For the same molecule, the pest or weed control at 140 g/ha ([7]; 140 g ai/ha) was 25%, the pest or weed control at 17.5 g/ha ([8]; 17.5 g ai/ha) was 70% and the pest or weed control at 35 g/ha ([8]; 35 g ai/ha) was 85%. The pest or weed control at 70 g/ha ([8]; 70 g ai/ha) was 90%, the pest or weed control at 140 g/ha ([8]; 140 g ai/ha) was 90% and the pest or weed control at 17.5 g/ha ([9]; 17.5 g ai/ha) was 30%. The pest or weed control at 35 g/ha ([9]; 35 g ai/ha) was 80%, the pest or weed control at 70 g/ha ([9]; 70 g ai/ha) was 85% and the pest or weed control at 140 g/ha ([9]; 140 g ai/ha) was 80%. It also gave a pest or weed control at 17.5 g/ha ([10]; 17.5 g ai/ha) of 0%, a pest or weed control at 35 g/ha ([10]; 35 g ai/ha) of 0% and a pest or weed control at 70 g/ha ([10]; 70 g ai/ha) of 0%. The pest or weed control at 140 g/ha ([10]; 140 g ai/ha) was 0%, the pest or weed control at 17.5 g/ha ([11]; 17.5 g ai/ha) was 0% and the pest or weed control at 35 g/ha ([11]; 35 g ai/ha) was 0%. It also gave a pest or weed control at 70 g/ha ([11]; 70 g ai/ha) of 0% and a pest or weed control at 140 g/ha ([11]; 140 g ai/ha) of 10%.
